Each structure is given as a SMILES string.

For the first test, the system named is HIV in the HTLV-1 transformed cell line MT-4. In words: organism not typed. The test is classed as cell-based. Particulars: MT4, 96 h, MT-4 cells; luciferase/cell titer glo readout after 96 hours; 10 point dose response. (ATP-based viability assays read luminescence as a measure of living cells.)
With `Cc1ccc(-c2c(C)c3c(c(C)c2[C@H](OC(C)(C)C)C(=O)O)CN(Cc2cccc4ccccc24)C3)cc1` [Example 13, (S)-2-(tert-Butoxy)-2-(4,7-dimethyl-2-(naphthalen-1-ylmethyl)-6-(p-tolyl)isoindolin-5-yl)acetic acid], half-maximal inhibition (IC50) was put at 0.044 µM.

As for `Cc1ccc(-c2c(C)c3c(c(C)c2[C@H](OC(C)(C)C)C(=O)O)CN(C(=O)NCc2ncccn2)C3)cc1` [Example 290, (S)-2-(tert-butoxy)-2-(4,7-dimethyl-2-((pyrimidin-2-ylmethyl)carbamoyl)-6-(p-tolyl)isoindolin-5-yl)acetic acid], 2.56 µM corresponded to half-maximal inhibition (IC50).

On to `Cc1ccc(-c2c(C)c3c(c(C)c2[C@H](OC(C)(C)C)C(=O)O)CN(C(=O)c2cc(F)c(F)c(F)c2)C3)cc1` [Example 279, (S)-2-(tert-butoxy)-2-(4,7-dimethyl-6-(p-tolyl)-2-(3,4,5-trifluorobenzoyl)isoindolin-5-yl)acetic acid], for which the IC50 (usually the point on the concentration scale where inhibition reaches its midpoint) worked out at 0.004 µM.

In turn, `Cc1ccc(-c2c(C)c3c(c(C)c2[C@H](OC(C)(C)C)C(=O)O)CN(C(=O)N2CCOC[C@H]2C)C3)cc1` [Example 72, (2S)-2-(tert-butoxy)-2-{4,7-dimethyl-2-[(3R)-3-methylmorpholine-4-carbonyl]-6-(4-methylphenyl)-2,3-dihydro-1H-isoindol-5-yl}acetic acid] gave an IC50 of 0.016 µM.

With `Cc1c(-c2c(C)c3c(c(C)c2[C@H](OC(C)(C)C)C(=O)O)CN(C(=O)N2CCCCC2)C3)cc(F)c2c1NCCO2` [Example 318, (2S)-2-(tert-butoxy)-2-(6-(8-fluoro-5-methyl-3,4-dihydro-2H-benzo[b][1,4]oxazin-6-yl)-4,7-dimethyl-2-(piperidine-1-carbonyl)isoindolin-5-yl)acetic acid], the IC50 came to 0.005 µM.

Regarding `Cc1c(-c2c(C)c3c(c(C)c2[C@H](OC(C)(C)C)C(=O)O)CN(C(=O)c2cccc(F)c2)C3)ccc2c1CCCO2` [Example 305, (2S)-2-(tert-butoxy)-2-(2-(3-fluorobenzoyl)-4,7-dimethyl-6-(5-methylchroman-6-yl)isoindolin-5-yl)acetic acid], the IC50 was 0.002 µM.

As to `Cc1c(-c2c(C)c3c(c(C)c2[C@H](OC(C)(C)C)C(=O)O)CN(C(=O)c2cc(F)ccc2F)C3)cc(F)c2c1CCCO2` (atropisomer, axis not shown; (M)) [Example 285, (S)-2-(tert-butoxy)-2-((M)-2-(2,5-difluorobenzoyl)-6-(8-fluoro-5-methylchroman-6-yl)-4,7-dimethylisoindolin-5-yl)acetic acid], the IC50 was 0.002 µM.

As to `Cc1ccc(-c2c(C)c3c(c(C)c2[C@H](OC(C)(C)C)C(=O)O)CN(C(=O)c2ccccn2)C3)cc1` [Example 273, (S)-2-(tert-butoxy)-2-(4,7-dimethyl-2-picolinoyl-6-(p-tolyl)isoindolin-5-yl)acetic acid], the IC50 turned out to be 0.004 µM.

For the molecule `Cc1ccc(-c2c(C)c3c(c(C)c2[C@H](OC(C)(C)C)C(=O)O)CN(C(=O)c2ccc4c(c2)OCCO4)C3)cc1` [Example 255, (S)-2-(tert-butoxy)-2-(2-(2,3-dihydrobenzo[b][1,4]dioxine-6-carbonyl)-4,7-dimethyl-6-(p-tolyl)isoindolin-5-yl)acetic acid], the IC50 was determined as 0.013 µM.

`Cc1ccc(-c2c(C)c3c(c(C)c2[C@H](OC(C)(C)C)C(=O)O)CN(C(=O)N2[C@H]4CC[C@@H]2CC4)C3)cc1` [Example 83, (S)-2-(2-((1R,4R)-7-azabicyclo[2.2.1]heptane-7-carbonyl)-4,7-dimethyl-6-(p-tolyl)isoindolin-5-yl)-2-(tert-butoxy)acetic acid] yielded an IC50 of 0.006 µM.

Regarding `Cc1ccc(-c2c(C)c3c(c(C)c2[C@H](OC(C)(C)C)C(=O)O)CN(C(=O)c2cccnc2)C3)cc1` [Example 268, (S)-2-(tert-butoxy)-2-(4,7-dimethyl-2-nicotinoyl-6-(p-tolyl)isoindolin-5-yl)acetic acid], the IC50 came out at 0.014 µM.

The molecule `Cc1ccc(-c2c(C)c3c(c(C)c2[C@H](OC(C)(C)C)C(=O)O)CN(C(=O)c2cccc4c2ccn4C)C3)cc1` [Example 165, (S)-2-(tert-butoxy)-2-(4,7-dimethyl-2-(1-methyl-1H-indole-4-carbonyl)-6-(p-tolyl)isoindolin-5-yl)acetic acid] came in with an IC50 of 0.108 µM.

The molecule `COc1ccccc1C(=O)N1Cc2c(C)c(-c3cc(F)c4c(c3C)CCCO4)c([C@H](OC(C)(C)C)C(=O)O)c(C)c2C1` (atropisomer, axis not shown; (M)) [Example 199, (S)-2-(tert-butoxy)-2-((M)-6-(8-fluoro-5-methylchroman-6-yl)-2-(2-methoxybenzoyl)-4,7-dimethylisoindolin-5-yl)acetic acid] returned an IC50 of 0.004 µM.

Molecule `Cc1ccc(-c2c(C)c3c(c(C)c2[C@H](OC(C)(C)C)C(=O)O)CN(C(=O)c2cccc4ccoc24)C3)cc1` [Example 167, (S)-2-(2-(benzofuran-7-carbonyl)-4,7-dimethyl-6-(p-tolyl)isoindolin-5-yl)-2-(tert-butoxy)acetic acid] had a half-inhibitory concentration (IC50) of 0.004 µM.

`Cc1ccc(-c2c(C)c3c(c(C)c2[C@H](OC(C)(C)C)C(=O)O)CN(Cc2ccncc2)C3)cc1` [Example 11, (S)-2-(tert-butoxy)-2-(4,7-dimethyl-2-(pyridin-4-ylmethyl)-6-(p-tolyl)isoindolin-5-yl)acetic acid] came in with an IC50 of 0.174 µM.

`Cc1ccc(-c2c(C)c3c(c(C)c2[C@H](OC(C)(C)C)C(=O)O)CN(Cc2ccc(Cl)cc2)C3)cc1` [Example 18, (S)-2-(tert-butoxy)-2-(2-(4-chlorobenzyl)-4,7-dimethyl-6-(p-tolyl)isoindolin-5-yl)acetic acid] displayed an IC50 of 0.075 µM.

For `COc1ccc(F)c(C(=O)N2Cc3c(C)c(-c4ccc(C)cc4)c([C@H](OC(C)(C)C)C(=O)O)c(C)c3C2)c1` [Example 248, (S)-2-(tert-butoxy)-2-(2-(2-fluoro-5-methoxybenzoyl)-4,7-dimethyl-6-(p-tolyl)isoindolin-5-yl)acetic acid], inhibition was half-maximal at 0.005 µM (IC50).

`Cc1ccc(-c2c(C)c3c(c(C)c2[C@H](OC(C)(C)C)C(=O)O)CN(C(=O)C(C)(C)C)C3)cc1` [Example 109, (S)-2-(tert-butoxy)-2-(4,7-dimethyl-2-pivaloyl-6-(p-tolyl)isoindolin-5-yl)acetic acid] returned an IC50 of 0.036 µM.

The molecule `COc1ccc(C(=O)N2Cc3c(C)c(-c4cc(F)c5c(c4C)CCCO5)c([C@H](OC(C)(C)C)C(=O)O)c(C)c3C2)cc1C` (atropisomer, axis not shown; (M)) [Example 192, (S)-2-(tert-butoxy)-2-((M)-6-(8-fluoro-5-methylchroman-6-yl)-2-(4-methoxy-3-methylbenzoyl)-4,7-dimethylisoindolin-5-yl)acetic acid] showed an IC50 of 0.005 µM.

As to `COC(=O)N1Cc2c(C)c(-c3ccc(C)cc3)c([C@H](OC(C)(C)C)C(=O)O)c(C)c2C1` [Example 48, (2S)-2-(tert-butoxy)-2-[2-(methoxycarbonyl)-4,7-dimethyl-6-(4-methylphenyl)-2,3-dihydro-1H-isoindol-5-yl]acetic acid], half-maximal inhibition (IC50) was put at 0.573 µM. This IC50 lies about 110-fold higher than the previous one.

Turning to `CCOCCC(=O)N1Cc2c(C)c(-c3ccc(C)cc3)c([C@H](OC(C)(C)C)C(=O)O)c(C)c2C1` [Example 232, (S)-2-(tert-butoxy)-2-(2-(3-ethoxypropanoyl)-4,7-dimethyl-6-(p-tolyl)isoindolin-5-yl)acetic acid], the IC50 was found to be 0.148 µM.

Consider `Cc1c(-c2c(C)c3c(c(C)c2[C@H](OC(C)(C)C)C(=O)O)CN(C(=O)c2ccc(F)c(F)c2)C3)cc(F)c2c1CCCO2` (atropisomer, axis not shown; (M)) [Example 186, (S)-2-(tert-butoxy)-2-((M)-2-(3,4-difluorobenzoyl)-6-(8-fluoro-5-methylchroman-6-yl)-4,7-dimethylisoindolin-5-yl)acetic acid], for which the IC50 stood at 0.002 µM. This IC50 lies about 74-fold lower than the previous one.

`Cc1ccc(-c2c(C)c3c(c(C)c2[C@H](OC(C)(C)C)C(=O)O)CN(S(=O)(=O)N2CCOCC2)C3)cc1` [Example 52, (2S)-2-(tert-butoxy)-2-[4,7-dimethyl-6-(4-methylphenyl)-2-(morpholine-4-sulfonyl)-2,3-dihydro-1H-isoindol-5-yl]acetic acid] showed an IC50 of 0.018 µM.

In the case of `Cc1ccc(-c2c(C)c3c(c(C)c2[C@H](OC(C)(C)C)C(=O)O)CN(C(=O)N2CCOC[C@@H]2C)C3)cc1` [Example 91, (S)-2-(tert-butoxy)-2-(4,7-dimethyl-2-((S)-3-methylmorpholine-4-carbonyl)-6-(p-tolyl)isoindolin-5-yl)acetic acid], the IC50 is 0.013 µM. The IC50 values of the last two molecules are within 1.5-fold of each other.

`Cc1ccc(-c2c(C)c3c(c(C)c2[C@H](OC(C)(C)C)C(=O)O)CN(CC2CCCN2C(=O)OC(C)(C)C)C3)cc1` (stereo partly drawn) [Example 40, (2S)-2-(tert-butoxy)-2-[2-({1-[(tert-butoxy)carbonyl]pyrrolidin-2-yl}methyl)-4,7-dimethyl-6-(4-methylphenyl)-2,3-dihydro-1H-isoindol-5-yl]acetic acid] yielded an IC50 of 3.43 µM.

Turning to `Cc1ccc(-c2c(C)c3c(c(C)c2[C@H](OC(C)(C)C)C(=O)O)CN(C(=O)C(=O)N2CCOC[C@H]2C)C3)cc1` [Example 130, (S)-2-(tert-butoxy)-2-(4,7-dimethyl-2-(2-((R)-3-methylmorpholino)-2-oxoacetyl)-6-(p-tolyl)isoindolin-5-yl)acetic acid], the IC50 stood at 0.041 µM.

`Cc1ccc(-c2c(C)c3c(c(C)c2[C@H](OC(C)(C)C)C(=O)O)CN(CC2CCOCC2)C3)cc1` [Example 12, (S)-2-(tert-butoxy)-2-(4,7-dimethyl-2-((tetrahydro-2H-pyran-4-yl)methyl)-6-(p-tolyl)isoindolin-5-yl)acetic acid] showed a half-inhibitory concentration (IC50) of 0.82 µM.

Take `Cc1c(-c2c(C)c3c(c(C)c2[C@H](OC(C)(C)C)C(=O)O)CN(C(=O)N2CCCCC2)C3)ccc2c1CCCO2` [Example 321, (2S)-2-(tert-butoxy)-2-(4,7-dimethyl-6-(5-methylchroman-6-yl)-2-(piperidine-1-carbonyl)isoindolin-5-yl)acetic acid]: the IC50 came to 0.002 µM.

Still in this test, the particulars now being: MT-4 cells; luciferase/cell titer glo readout after 96 hours; 10 point dose response.
For the molecule `Cc1ccc(-c2c(C)c3c(c(C)c2[C@H](OC(C)(C)C)C(=O)O)CN(C(=O)c2nccn2C)C3)cc1` [Example 239, (S)-2-(tert-butoxy)-2-(4,7-dimethyl-2-(1-methyl-1H-imidazole-2-carbonyl)-6-(p-tolyl)isoindolin-5-yl)acetic acid], inhibition was half-maximal at 0.016 µM (IC50).
